Data taken from patent publication US9840478B2 (MERCK SHARP & DOHME CORP., priority 2013, dated 2017).

Test system: HIV-1 (H9IIIB strain)
Assay: Cell-based HIV infection assay using a reporter (Cell-Based), MT4-GFP cells
Conditions: Human immunodeficiency virus 1, MT4-GFP cells infected with HIV-1 H9IIIB; 50% normal human serum; mean of at least two independent experiments; read-out: Cell-based IP
Procedure, shortened: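 IC50 from 4-parameter dose-response of % viral growth inhibition, using the 48 h/24 h infected-cell ratio scaled between DMSO and a protease/integrase/NNRTI triple-drug control. Assay used MT4 cells with HIV-LTR-GFP reporter, pre-infected 24 h with HIV-1 H9IIIB, in 50% normal human serum.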

| SMILES | IC50 |
| --- | --- |
| COC(=O)N[C@H](C(=O)Nc1cccc(F)c1CC[C@H]1CNC[C@@H](C)N1S(=O)(=O)C1CC1)[C@@H](c1ccc(Cl)cc1)c1ccc(OC)nc1 [Example 153, (βS)-4-chloro-N-(2-{2-[(2S,6R)-1-(cyclopropylsulfonyl)-6-methylpiperazin-2-yl]ethyl}-3-fluorophenyl)-Nα-(methoxycarbonyl)-β-(6-methoxypyridin-3-yl)-L-phenylalaninamide] | 28 nM |
| C[C@H]1CNC[C@H](CCc2c(F)cccc2NC(=O)[C@@H](N)[C@H](c2cccc(F)c2)c2cccc(Cl)c2)N1S(=O)(=O)c1ccccc1 [Example 154, (βR)-3-chloro-N-(3-fluoro-2-{2-[(2S,6S)-6-methyl-1-(phenylsulfonyl)piperazin-2-yl]ethyl}phenyl)-β-(3-fluorophenyl)-L-phenylalaninamide] | 65 nM |
| COC(=O)N[C@H](C(=O)Nc1cccc(F)c1CC[C@H]1CNC[C@H](C)N1S(=O)(=O)c1ccccc1)[C@H](c1cccc(F)c1)c1cccc(Cl)c1 [Example 155, (βR)-3-chloro-N-(3-fluoro-2-{2-[(2S,6S)-6-methyl-1-(phenylsulfonyl)piperazin-2-yl]ethyl}phenyl)-β-(3-fluorophenyl)-Nα-(methoxycarbonyl)-L-phenylalaninamide] | 67 nM |
| COc1ccc(S(=O)(=O)N2[C@@H](CCc3c(F)cccc3NC(=O)[C@@H](N)C(c3cccc(F)c3)c3cccc(F)c3)CNC[C@@H]2C)cc1 [Example 156, 3-fluoro-N-[3-fluoro-2-(2-{(2S,6S)-1-[(4-methoxyphenyl)sulfonyl]-6-methylpiperazin-2-yl}ethyl)phenyl]-β-(3-fluorophenyl)-L-phenylalaninamide] | 14 nM |
| COC(=O)N[C@H](C(=O)Nc1cccc(F)c1CC[C@H]1CNC[C@H](C)N1S(=O)(=O)c1ccc(OC)cc1)C(c1cccc(F)c1)c1cccc(F)c1 [Example 157, 3-fluoro-N-[3-fluoro-2-(2-{(2S,6S)-1-[(4-methoxyphenyl)sulfonyl]-6-methylpiperazin-2-yl}ethyl)phenyl]-β-(3-fluorophenyl)-Nα-(methoxycarbonyl)-L-phenylalaninamide] | 7.3 nM |
| C[C@H]1CNC[C@H](CCc2c(F)cccc2NC(=O)[C@@H](N)C(c2cccc(F)c2)c2cccc(F)c2)N1S(=O)(=O)C1CC1 [Example 158, N-(2-{2-[(2S,6S)-1-(cyclopropylsulfonyl)-6-methylpiperazin-2-yl]ethyl}-3-fluorophenyl)-3-fluoro-β-(3-fluorophenyl)-L-phenylalaninamide] | 75 nM |
| COC(=O)N[C@H](C(=O)Nc1cccc(F)c1CC[C@H]1CNC[C@H](C)N1S(=O)(=O)C1CC1)C(c1cccc(F)c1)c1cccc(F)c1 [Example 159, N-(2-{2-[(2S,6S)-1-(cyclopropylsulfonyl)-6-methylpiperazin-2-yl]ethyl}-3-fluorophenyl)-3-fluoro-β-(3-fluorophenyl)-Nα-(methoxycarbonyl)-L-phenylalaninamide] | 42 nM |
| C[C@@H]1CNC[C@H](CCc2c(F)cccc2NC(=O)[C@@H](N)[C@@H](c2ccc(Cl)cc2)C2CCOCC2)N1S(C)(=O)=O [Example 160, (βR)-4-chloro-N-(3-fluoro-2-{2-[(2S,6R)-6-methyl-1-(methylsulfonyl)piperazin-2-yl]ethyl}phenyl)-β-(tetrahydro-2H-pyran-4-yl)-L-phenylalaninamide] | 190 nM |
| COc1ccc(S(=O)(=O)N2[C@@H](CCc3c(F)cccc3NC(=O)[C@@H](N)[C@H](c3cccc(F)c3)c3cccc(Cl)c3)CNC[C@@H]2C)cc1 [Example 162, (βR)-3-chloro-N-[3-fluoro-2-(2-{(2S,6S)-1-[(4-methoxyphenyl)sulfonyl]-6-methylpiperazin-2-yl}ethyl)phenyl]-β-(3-fluorophenyl)-L-phenylalaninamide] | 22 nM |
| COC(=O)N[C@H](C(=O)Nc1cccc(F)c1CC[C@H]1CNC[C@H](C)N1S(=O)(=O)c1ccc(OC)cc1)[C@H](c1cccc(F)c1)c1cccc(Cl)c1 [Example 163, (βR)-3-chloro-N-[3-fluoro-2-(2-{(2S,6S)-1-[(4-methoxyphenyl)sulfonyl]-6-methylpiperazin-2-yl}ethyl)phenyl]-β-(3-fluorophenyl)-Nα-(methoxycarbonyl)-L-phenylalaninamide] | 20 nM |
| COc1ccc([C@H](c2ccc(Cl)cc2)[C@H](N)C(=O)Nc2cccc(F)c2CC[C@H]2CNC[C@H](C)N2S(C)(=O)=O)cn1 [Example 164, (βS)-4-chloro-N-(3-fluoro-2-{2-[(2S,6S)-6-methyl-1-(methylsulfonyl)piperazin-2-yl]ethyl}phenyl)-β-(6-methoxypyridin-3-yl)-L-phenylalaninamide] | 37 nM |
| COC(=O)N[C@H](C(=O)Nc1cccc(F)c1CC[C@H]1CNC[C@H](C)N1S(C)(=O)=O)[C@@H](c1ccc(Cl)cc1)c1ccc(OC)nc1 [Example 165, (βS)-4-chloro-N-(3-fluoro-2-{2-[(2S,6S)-6-methyl-1-(methylsulfonyl)piperazin-2-yl]ethyl}phenyl)-Nα-(methoxycarbonyl)-β-(6-methoxypyridin-3-yl)-L-phenylalaninamide] | 17 nM |
| C[C@H]1CNC[C@H](CCc2c(F)cncc2NC(=O)[C@@H](N)[C@@H](c2ccc(Cl)cc2)c2cccc(F)c2)N1S(=O)(=O)C1CC1 [Example 166, (βS)-4-chloro-N-(4-{2-[(2S,6S)-1-(cyclopropylsulfonyl)-6-methylpiperazin-2-yl]ethyl}-5-fluoropyridin-3-yl)-β-(3-fluorophenyl)-L-phenylalaninamide] | 29 nM |
| C[C@H]1CNC[C@H](CCc2c(F)cccc2NC(=O)[C@@H](N)[C@@H](c2ccc(Cl)cc2)c2cccc(F)c2)N1S(=O)(=O)C1CC1 [Example 167, (βS)-4-chloro-N-(2-{2-[(2S,6S)-1-(cyclopropylsulfonyl)-6-methylpiperazin-2-yl]ethyl}-3-fluorophenyl)-β-(3-fluorophenyl)-L-phenylalaninamide] | 31 nM |
| COC(=O)N[C@H](C(=O)Nc1cccc(F)c1CC[C@H]1CNC[C@H](C)N1S(=O)(=O)C1CC1)[C@@H](c1ccc(Cl)cc1)c1cccc(F)c1 [Example 168, (βS)-4-chloro-N-(2-{2-[(2S,6S)-1-(cyclopropylsulfonyl)-6-methylpiperazin-2-yl]ethyl}-3-fluorophenyl)-β-(3-fluorophenyl)-Nα-(methoxycarbonyl)-L-phenylalaninamide] | 19 nM |
| C[C@@H]1CNC[C@H](CCc2c(F)cccc2NC(=O)[C@@H](N)[C@H](c2cccc(F)c2)c2cccc(Cl)c2)N1S(C)(=O)=O [Example 169, (βR)-3-chloro-N-(3-fluoro-2-{2-[(2S,6R)-6-methyl-1-(methylsulfonyl)piperazin-2-yl]ethyl}phenyl)-β-(3-fluorophenyl)-L phenylalaninamide] | 170 nM |
| C[C@H]1CNC[C@H](CCc2c(F)cccc2NC(=O)[C@@H](N)C(c2cccc(F)c2)c2cccc(F)c2)N1S(C)(=O)=O [Example 170, 3-fluoro-N-(3-fluoro-2-{2-[(2S,6S)-6-methyl-1-(methylsulfonyl)piperazin-2-yl]ethyl}phenyl)-β-(3-fluorophenyl)-L-phenylalaninamide] | 60 nM |
| COC(=O)N[C@H](C(=O)Nc1cccc(F)c1CC[C@H]1CNC[C@H](C)N1S(C)(=O)=O)C(c1cccc(F)c1)c1cccc(F)c1 [Example 171, 3-fluoro-N-(3-fluoro-2-{2-[(2S,6S)-6-methyl-1-(methylsulfonyl)piperazin-2-yl]ethyl}phenyl)-β-(3-fluorophenyl)-Nα-(methoxycarbonyl)-L-phenylalaninamide] | 26 nM |
| C[C@H]1CNC[C@H](CCc2c(F)cccc2NC(=O)[C@@H](N)[C@H](c2cccc(F)c2)c2cccc(Cl)c2)N1S(C)(=O)=O [Example 172, (βR)-3-chloro-N-(3-fluoro-2-{2-[(2S,6S)-6-methyl-1-(methylsulfonyl)piperazin-2-yl]ethyl}phenyl)-β-(3-fluorophenyl)-L-phenylalaninamide] | 180 nM |
| COC(=O)N[C@H](C(=O)Nc1cccc(F)c1CC[C@H]1CNC[C@@H](C)N1S(C)(=O)=O)[C@H](c1cccc(F)c1)c1cccc(Cl)c1 [Example 173, (βR)-3-chloro-N-(3-fluoro-2-{2-[(2S,6R)-6-methyl-1-(methylsulfonyl)piperazin-2-yl]ethyl}phenyl)-β-(3-fluorophenyl)-Nα-(methoxycarbonyl)-L-phenylalaninamide] | 90 nM |
| COC(=O)N[C@H](C(=O)Nc1cccc(F)c1CC[C@H]1CNC[C@H](C)N1S(C)(=O)=O)[C@H](c1cccc(F)c1)c1cccc(Cl)c1 [Example 174, (βR)-3-chloro-N-(3-fluoro-2-{2-[(2S,6S)-6-methyl-1-(methylsulfonyl)piperazin-2-yl]ethyl}phenyl)-β-(3-fluorophenyl)-Nα-(methoxycarbonyl)-L-phenylalaninamide] | 99 nM |
| COC(=O)N[C@H](C(=O)Nc1cccc(F)c1CC[C@H]1CNC[C@H](C)N1S(=O)(=O)C1CC1)[C@H](c1cccc(F)c1)c1cccc(Cl)c1 [Example 175, (βR)-3-chloro-N-(2-{2-[(2S,6S)-1-(cyclopropylsulfonyl)-6-methylpiperazin-2-yl]ethyl}-3-fluorophenyl)-β-(3-fluorophenyl)-Nα-(methoxycarbonyl)-L-phenylalaninamide] | 110 nM |
| C[C@H]1CNC[C@H](CCc2c(F)cccc2NC(=O)[C@@H](N)[C@H](c2cccc(F)c2)c2cccc(Cl)c2)N1S(=O)(=O)C1CC1 [Example 176, (βR)-3-chloro-N-(2-{2-[(2S,6S)-1-(cyclopropylsulfonyl)-6-methylpiperazin-2-yl]ethyl}-3-fluorophenyl)-β-(3-fluorophenyl)-L-phenylalaninamide] | 190 nM |
| CC(C)[C@H](c1ccc(Cl)cc1)[C@H](N)C(=O)Nc1cncc(F)c1CC[C@H]1CNC[C@H](C)N1S(=O)(=O)C1CC1 [Example 177, (βR)-4-chloro-N-(4-{2-[(2S,6S)-1-(cyclopropylsulfonyl)-6-methylpiperazin-2-yl]ethyl}-5-fluoropyridin-3-yl)-β-(1-methylethyl)-L-phenylalaninamide] | 95 nM |
